In series [1] the target is recombinant Leishmania DHCH1 (Leishmania major, UniProt Q4Q9F9). Nature of the series: Inhibition of dehydrogenase. The format is biochemical. The following applies: for Inhibition of L. major DHCH1: tested at 50 μM, data not shown.
For series [2], the system named is L. major FV1 promastigotes dhch1^−/pXNG4-DHCH1. Nature of the series: microbe, parasite or virus in culture. The format is cell-based, Leishmania major. The following applies: for Resistance of DHCH1 or FTL overexpressors: DHCH1 or FTL overexpressors vs WT; for EC50: Leishmania major, read-out: EC50 growth.
For series [3], the system named is L. major FV1 promastigotes WT. As to the kind of experiment: Promastigote growth inhibition, WT line. It counts as cell-based. The following applies: Leishmania major, read-out: EC50 growth.
For series [4], the system named is L. major FV1 promastigotes dhch1^−/pXNG4-FTL. As to the kind of experiment: Promastigote growth inhibition, dhch1−/pXNG4-FTL line. It counts as cell-based. The following applies: Leishmania major, read-out: EC50 growth.
For series [5], the target named is T1, recombinant Leishmania major DHCH1 (Leishmania major, UniProt Q4Q9F9).
T1 sequence (Q4Q9F9 1-298): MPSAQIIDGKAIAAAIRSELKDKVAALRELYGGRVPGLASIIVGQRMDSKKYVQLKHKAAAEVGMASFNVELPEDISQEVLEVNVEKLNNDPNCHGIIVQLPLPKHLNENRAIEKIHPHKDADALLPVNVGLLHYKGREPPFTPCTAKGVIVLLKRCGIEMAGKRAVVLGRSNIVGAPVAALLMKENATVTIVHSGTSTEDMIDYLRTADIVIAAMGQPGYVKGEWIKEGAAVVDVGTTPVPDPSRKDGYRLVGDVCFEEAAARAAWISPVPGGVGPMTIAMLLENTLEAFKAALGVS
Nature of the series: Kinetic constants of the dehydrogenase reaction of recombinant L. major DHCH1. The format is biochemical. The following applies: limit of detection 0.3 μmol min^−1 mg^−1; also with 5 mM (K+)PO4 and 5 mM MgCl2.

Series [6] has as its system L. major FV1 promastigotes WT/pXNG4-FTL. Nature of the series: Promastigote growth inhibition, WT/pXNG4-FTL line. The format is cell-based. The following applies: Leishmania major, read-out: EC50 growth.
The subject of series [7] is L. major FV1 promastigotes WT/pXNG4-DHCH1. As to the kind of experiment: Promastigote growth inhibition, WT/pXNG4-DHCH1 line. It counts as cell-based. The following applies: Leishmania major, read-out: EC50 growth.
A further series concerns the target human DHFR. The following applies: read-out: Ki, human DHFR; ref Temple et al., 1982; cited from earlier work.
In a further series the target is Leishmania DHFR-TS (Leishmania major, UniProt P07382). Nature of the series: DHFR activity of the bifunctional L. major DHFR-TS. The format is biochemical. The following applies: 100 μM; data not shown.
A further series relates to host cell (macrophages). Nature of the series: Host cell toxicity in the amastigote/macrophage test. The following applies: macrophage host cells; preliminary studies, unpublished data. It counts as cell-based.
In another series the test system is FTL. The following applies: 100 μM; ref Vickers et al., 2008; cited from earlier work.

Sequence of Leishmania DHFR-TS (P07382 whole entry): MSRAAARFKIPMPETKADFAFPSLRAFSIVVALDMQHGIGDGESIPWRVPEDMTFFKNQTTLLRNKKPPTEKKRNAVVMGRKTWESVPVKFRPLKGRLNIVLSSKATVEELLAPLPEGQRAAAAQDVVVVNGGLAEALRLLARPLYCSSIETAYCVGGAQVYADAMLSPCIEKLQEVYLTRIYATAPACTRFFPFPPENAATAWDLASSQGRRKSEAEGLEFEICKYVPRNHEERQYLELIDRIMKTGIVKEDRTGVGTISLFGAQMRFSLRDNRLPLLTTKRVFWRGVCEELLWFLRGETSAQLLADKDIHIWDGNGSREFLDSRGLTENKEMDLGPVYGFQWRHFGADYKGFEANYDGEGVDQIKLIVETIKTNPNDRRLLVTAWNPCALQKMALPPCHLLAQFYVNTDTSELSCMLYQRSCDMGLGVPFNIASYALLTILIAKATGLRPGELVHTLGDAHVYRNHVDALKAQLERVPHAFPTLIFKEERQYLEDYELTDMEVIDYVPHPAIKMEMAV

One may read the EC50 as the concentration at which the effect is half-maximal. Turning to `CN(Cc1cnc2nc(N)nc(N)c2n1)c1ccc(C(=O)N[C@@H](CCC(=O)O)C(=O)O)cc1` [Methotrexate], the “Inhibition of L. major DHCH1” value in series [1] is “not inhibited”. The “Resistance of DHCH1 or FTL overexpressors” value (shortened to “Resistance”) in series [2] was “did not show resistance”. In addition, the EC50 was 41 ± 2 nM in series [2], 36 ± 1 nM in [3] and 40 ± 2 nM in series [4].

In the case of `Nc1nc(N)c(CCCc2ccccc2)c(Cc2ccccc2)n1` [Compound 70, 2,4-diamino-6-benzyl-5-(3-phenylpropyl)-pyrimidine], the “Inhibition of L. major DHCH1” value in series [1] is recorded as “not inhibited”. Moreover, in series [2], the “Resistance” value is “did not show resistance”. Moreover, the values for the EC50 in series [2], in [3] and in [4] were 400 ± 50 nM, 440 ± 50 nM and 420 ± 40 nM, respectively.

For `CC(C)c1nc2nc(N)nc(N)c2nc1C(C)C` [Compound 25, 2,4-Diamino-6,7-diisopropylpteridine], the “Inhibition of L. major DHCH1” value in series [1] is on record as “not inhibited”.

For `Nc1nc(N)c2cc(Oc3ccc(Cl)c(Cl)c3)ccc2n1` [Compound 34, 2,4-diamino-6-(3,4-dichlorophenoxy)-quinazoline], the “Inhibition of L. major DHCH1” value in series [1] is listed as “not inhibited”. The “Resistance” value in series [2] is listed as “did not show resistance”. Also, the results for the EC50 in [2], in series [3] and in [4] were 760 ± 80 nM, 680 ± 90 nM and 540 ± 60 nM, respectively.

With `NC(=O)c1ccc[n+]([C@@H]2O[C@H](COP(=O)([O-])OP(=O)(O)OC[C@H]3O[C@@H](n4cnc5c(N)ncnc54)[C@H](O)[C@@H]3O)[C@@H](O)[C@H]2O)c1` [NAD^+], the “Dehydrogenase activity with the coenzyme” value in series [5] is given as “no activity detected”.

Usually Ki stands for a dissociation constant, usually derived from enzyme kinetics or from competition with a known ligand. Consider `Nc1nc(O)c2c(n1)NC[C@@H]1CN(c3ccc(C(=O)N[C@@H](CCC(=O)O)C(=O)O)cc3)C(=O)N21` [5,10-CO-THF, (2S)-2-[[4-[(6aR)-3-amino-1,9-dioxo-5,6,6a,7-tetrahydro-4H-imidazo[3,4-f]pteridin-8-yl]benzoyl]amino]pentanedioic acid], for which the EC50 in series [6] was determined as 3700 ± 500 nM; in series [7], 5100 ± 800 nM; in [2], 4500 ± 500 nM; in [3] it was 1100 ± 40 nM; in series [4] it was 3300 ± 300 nM. Moreover, the figures for the inhibition constant (Ki) (at human DHFR; in [1]) were more than 100000 nM and 105 nM, respectively. Besides, on Leishmania DHFR-TS, the “Inhibition of the activity of Leishmania DHFR-TS” value is listed as “did not inhibit”. In the series with host cell (macrophages), the “Concentration above which host cell toxicity was seen” value is listed as “above 10 μM”. Also, the “Inhibition of the activity of FTL” value in the series with FTL is listed as “did not inhibit”.

Values taken from publication PMC2692627 (Molecular microbiology, 2009).
